Data as given in ChEMBL document CHEMBL1142685, “Novel anticholinesterases based on the molecular skeletons of furobenzofuran and methanobenzodioxepine” (J Med Chem, 2005).

Key:
Cholinesterase = Cholinesterase (Homo sapiens, UniProt P06276)
Description: Inhibitory concentration against human plasma Butyrylcholinesterase

Acetylcholinesterase = Acetylcholinesterase (Homo sapiens, UniProt P22303)
Description: Inhibitory concentration against human erythrocyte Acetylcholinesterase

SK-N-SH = assay: Reduction in Amyloid-beta precursor protein levels in Human SK-N-SH cells at 10 uM; assay type: functional

Sequence of Cholinesterase (P06276 whole entry): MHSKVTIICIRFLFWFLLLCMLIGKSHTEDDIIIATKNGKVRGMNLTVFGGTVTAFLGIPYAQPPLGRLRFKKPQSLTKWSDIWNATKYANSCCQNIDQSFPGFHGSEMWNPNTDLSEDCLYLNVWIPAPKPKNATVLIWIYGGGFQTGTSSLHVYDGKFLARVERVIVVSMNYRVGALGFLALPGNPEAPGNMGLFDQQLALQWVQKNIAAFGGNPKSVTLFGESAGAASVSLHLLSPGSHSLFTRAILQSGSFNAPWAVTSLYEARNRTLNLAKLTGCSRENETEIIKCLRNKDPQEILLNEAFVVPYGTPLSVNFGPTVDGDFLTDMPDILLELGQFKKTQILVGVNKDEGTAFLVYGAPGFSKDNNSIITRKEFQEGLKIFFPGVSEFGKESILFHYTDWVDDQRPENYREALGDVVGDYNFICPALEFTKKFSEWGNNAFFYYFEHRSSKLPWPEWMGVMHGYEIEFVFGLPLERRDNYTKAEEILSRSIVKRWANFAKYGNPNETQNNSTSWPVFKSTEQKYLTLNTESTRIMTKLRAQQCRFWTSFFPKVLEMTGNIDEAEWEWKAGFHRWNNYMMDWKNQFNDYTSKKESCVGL
Sequence of Acetylcholinesterase (P22303 whole entry): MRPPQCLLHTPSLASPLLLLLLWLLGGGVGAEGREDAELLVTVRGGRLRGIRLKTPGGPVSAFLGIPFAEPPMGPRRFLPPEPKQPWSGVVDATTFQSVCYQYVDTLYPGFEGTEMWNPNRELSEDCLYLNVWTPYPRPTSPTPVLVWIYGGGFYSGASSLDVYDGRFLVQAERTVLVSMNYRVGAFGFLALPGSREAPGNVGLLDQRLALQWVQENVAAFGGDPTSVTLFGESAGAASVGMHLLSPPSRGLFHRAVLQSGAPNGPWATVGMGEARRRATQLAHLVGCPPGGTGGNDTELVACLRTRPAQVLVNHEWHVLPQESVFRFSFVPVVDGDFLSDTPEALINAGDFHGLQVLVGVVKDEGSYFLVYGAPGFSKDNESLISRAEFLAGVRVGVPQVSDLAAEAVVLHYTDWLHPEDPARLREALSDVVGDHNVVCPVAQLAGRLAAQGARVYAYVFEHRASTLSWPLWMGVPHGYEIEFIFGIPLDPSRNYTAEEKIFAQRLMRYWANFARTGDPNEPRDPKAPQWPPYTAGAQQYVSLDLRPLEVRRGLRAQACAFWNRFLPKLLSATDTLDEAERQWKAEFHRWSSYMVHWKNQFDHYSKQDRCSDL

Row | SMILES | IC50 (Cholinesterase) [nM] | IC50 (Acetylcholinesterase) [nM] | Reduction (SK-N-SH) [%]
1 | CCNC(=O)Oc1ccc2c(c1)C1(C)CCOC1O2 (configuration not stated) | 6 | 360 | –
2 | Cc1ccccc1NC(=O)Oc1ccc2c(c1)C1(C)COC(C1)O2 (configuration not stated) | > 30000 | 56 | –
3 | CN1CC[C@@]2(C)c3cc(OC(=O)Nc4ccccc4)ccc3N(C)[C@@H]12 [PHENSERINE] | – | – | 50
4 | Cc1ccccc1NC(=O)Oc1ccc2c(c1)C1(C)CCOC1O2 (configuration not stated) | > 30000 | – | –
5 | CCc1ccccc1NC(=O)Oc1ccc2c(c1)[C@]1(C)CC[N+](C)([O-])[C@@H]1N2C (some centres not stated) | 1700 | 125 | –
6 | CCNC(=O)Oc1ccc2c(c1)[C@]1(C)CCN(C)C1N2C (some centres not stated) | 4 | 94 | –
7 | CNC(=O)Oc1ccc2c(c1)[C@]1(C)CCOC1N2C (some centres not stated) | 4 | 27 | –
8 | CC(C)c1ccc(NC(=O)Oc2ccc3c(c2)C2(C)CCOC2O3)cc1 (configuration not stated) | 27 | – | –
9 | Cc1ccccc1NC(=O)Oc1ccc2c(c1)[C@]1(C)CCOC1N2C (some centres not stated) | 1560 | 13 | –
10 | CCNC(=O)Oc1ccc2c(c1)C1(C)COC(C1)O2 (configuration not stated) | 24 | – | –
11 | CC(C)c1ccc(NC(=O)Oc2ccc3c(c2)[C@]2(C)CCOC2N3C)cc1 (some centres not stated) | 17 | 3860 | –
12 | CC(C)c1ccc(NC(=O)Oc2ccc3c(c2)C2(C)COC(C2)O3)cc1 (configuration not stated) | 22 | 4300 | –
13 | CCNC(=O)Oc1ccc2c(c1)[C@]1(C)CCOC1N2C (some centres not stated) | 2 | 82 | –
